From ChEMBL document CHEMBL1126037, “4'-modified analogues of aristeromycin and neplanocin A: synthesis and inhibitory activity toward S-adenosyl-L-homocysteine hydrolase” (J Med Chem, 1992)
Active and inactive are the calls of the source. The rule behind the calls is not given here.

Assays:
[1] = test system: Adenosylhomocysteinase (Bos taurus)
[2] = biological target: Adenosylhomocysteinase (Homo sapiens) (UniProt P23526); settings: Bos taurus
[3] = biological target: Adenosylhomocysteinase (Homo sapiens) (UniProt P23526); settings: Bos taurus; remark: listed apart in the source
Description: Kinetic constant against bovine liver S-adenosyl-L-homocysteine hydrolase (AdoHcy); reversibleinhibitor

[4] = test system: Adenosylhomocysteinase (Bos taurus); assay: Kinetic constant against bovine liver S-adenosyl-L-homocysteine hydrolase (AdoHcy); c = Inactive up to 100 uM
[5] = test system: Adenosylhomocysteinase (Bos taurus); assay: Inhibitory activity against bovine liver S-adenosyl-L-homocysteine hydrolase (AdoHcy); c = Inactive up to 100 uM

Adenosylhomocysteinase (Homo sapiens), sequence (P23526 2-432 limits assumed): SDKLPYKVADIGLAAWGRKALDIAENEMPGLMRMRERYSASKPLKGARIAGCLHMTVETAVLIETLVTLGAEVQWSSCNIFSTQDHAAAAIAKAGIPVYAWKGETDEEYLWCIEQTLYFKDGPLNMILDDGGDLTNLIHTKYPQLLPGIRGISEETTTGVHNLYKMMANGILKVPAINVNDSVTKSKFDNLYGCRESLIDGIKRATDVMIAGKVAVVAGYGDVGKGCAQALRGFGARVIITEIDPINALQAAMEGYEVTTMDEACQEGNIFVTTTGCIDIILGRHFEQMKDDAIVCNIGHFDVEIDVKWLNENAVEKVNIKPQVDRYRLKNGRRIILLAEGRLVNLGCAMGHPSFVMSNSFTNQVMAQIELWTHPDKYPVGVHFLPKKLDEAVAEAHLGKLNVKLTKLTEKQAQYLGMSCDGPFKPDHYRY

| Structure (SMILES) | k2 [1] | other results |
| --- | --- | --- |
| Nc1ncnc2c1ncn2[C@@H]1C[C@H](c2ccccc2)[C@@H](O)[C@H]1O | 0.01 min⁻¹ |  |
| Nc1ncnc2c1ncn2[C@@H]1C=C[C@@H](O)[C@H]1O | 0.043 min⁻¹ |  |
| CC1=C[C@@H](n2cnc3c(N)ncnc32)[C@H](O)[C@@H]1O | 0.09 min⁻¹ |  |
| C[C@@H]1C[C@@H](n2cnc3c(N)ncnc32)[C@H](O)[C@@H]1O | 0.025 min⁻¹ |  |
| C[C@H]1C[C@@H](n2cnc3c(N)ncnc32)[C@H](O)[C@@H]1O | 0.039 min⁻¹ |  |
| CC[C@H]1C[C@@H](n2cnc3c(N)ncnc32)[C@H](O)[C@@H]1O | 0.083 min⁻¹ |  |
| Nc1ncnc2c1ncn2[C@@H]1C=C(CO)[C@@H](O)[C@H]1O |  | k2 [2]: 1.98 min⁻¹ |
| Nc1ncnc2c1ncn2[C@@H]1CC[C@@H](O)[C@H]1O | 0.109 min⁻¹ |  |
| Nc1ncnc2c1ncn2[C@@H]1C[C@H](CO)[C@@H](O)[C@H]1O |  | k2 [3]: Reversible inhibition |
| CCC1=C[C@@H](n2cnc3c(N)ncnc32)[C@H](O)[C@@H]1O |  | k2 [4]: inactive; Ki [5]: Inactive |
| C=C[C@H]1C[C@@H](n2cnc3c(N)ncnc32)[C@H](O)[C@@H]1O | 0.053 min⁻¹ |  |
